Assay [1] concerns the target T1, photosystem II (PS II) (Spinacia oleracea, UniProt P69560).
T1 construct: the chloroplasts were osmotically ruptured and the thylakoid membranes were then obtained by centrifugation; from tissue; host or cells: thylakoid membranes from fresh spinach leaves
Kind of assay: Measurement of the PS II activity in thylakoid membranes (DCPIP reduction, Experimental Part 3, Table E1). Type of assay: biochemical. The following applies: spinach thylakoid membranes. The gist of the method: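 Spinach leaf thylakoid membranes in 50 mM phosphate pH 6.8, 10 mM KCl, 120 μM DCPIP, under light. Compounds added from 100 μM DMSO solution (2.5% DMSO final). DCPIP reduction read as absorbance decrease at 595 nm over 10 min at 22 °C, reported as percent-inhibition classes.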

The test system of assay [2] is Abutilon theophrasti. Kind of assay: Herbicidal post-emergence action (Experimental Part 2, C). Type of assay: in vivo. To be noted: post-emergence (Part 2), application rate 320 g/ha, rated visually after about 3 weeks. In a few lines:
(§1)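 Weeds sown in sandy loam, greenhouse-grown and sprayed post-emergence at one-leaf stage (2–3 weeks after sowing) with WP or EC formulations plus 0.5% additive at 600 L/ha water. Visual rating about 3 weeks later versus untreated controls (0% = like control, 100% = plants dead).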

The test system of assay [3] is Matricaria inodora. The description is as above. In kind it is in vivo. To be noted: post-emergence (Part 2), application rate 320 g/ha, rated visually after about 3 weeks. The gist of the method: as §1
The test system of assay [4] is Echinochloa crus-galli. The assay is described as above. Type of assay: in vivo. To be noted: post-emergence (Part 2), application rate 1280 g/ha, rated visually after about 3 weeks. In a few lines:
as §1

Assay [5] concerns Setaria viridis. Described as above. Type of assay: in vivo. The following applies: post-emergence (Part 2), application rate 320 g/ha, rated visually after about 3 weeks. The gist of the method:
as §1

Assay [6] deals with Stellaria media. Described as above. Type of assay: in vivo. The following applies: post-emergence (Part 2), application rate 320 g/ha, rated visually after about 3 weeks. The gist of the method:
as §1

In assay [7] the test system is Lolium rigidum. Described as above. In kind it is in vivo. To be noted: post-emergence (Part 2), application rate 1280 g/ha, rated visually after about 3 weeks. The gist of the method:
as §1

For assay [8], the system named is Poa annua. The description is as above. In kind it is in vivo. The following applies: post-emergence (Part 2), application rate 320 g/ha, rated visually after about 3 weeks. In a few lines: as §1
The subject of assay [9] is Amaranthus retroflexus. The description is as above. Type of assay: in vivo. The following applies: post-emergence (Part 2), application rate 320 g/ha, rated visually after about 3 weeks. In a few lines:
as §1

For assay [10], the system named is Abutilon theophrasti. Kind of assay: Herbicidal pre-emergence action (Experimental Part 2, D). The following applies: pre-emergence (Part 2), application rate 320 g/ha, scored visually after about 3 weeks. Type of assay: in vivo. The gist of the method:
(§2)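 Weed seeds were sown in sandy loam pots and covered with soil; WP or EC formulations were sprayed onto the soil surface as aqueous suspension/emulsion with 0.5% additive at 600 L/ha water, at 1280 or 320 g/ha. After about 3 weeks in a greenhouse, damage was scored visually as % versus untreated controls.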

Assay [11] relates to Matricaria inodora. The description is as above. Type of assay: in vivo. To be noted: pre-emergence (Part 2), application rate 320 g/ha, scored visually after about 3 weeks. The gist of the method:
as §2

The subject of assay [12] is Echinochloa crus-galli. The assay is described as above. In kind it is in vivo. The following applies: pre-emergence (Part 2), application rate 320 g/ha, scored visually after about 3 weeks. The gist of the method: as §2
For assay [13], the system named is Setaria viridis. The assay is described as above. In kind it is in vivo. The following applies: pre-emergence (Part 2), application rate 1280 g/ha, scored visually after about 3 weeks. The gist of the method: as §2
Assay [14] deals with Stellaria media. The assay is described as above. In kind it is in vivo. The following applies: pre-emergence (Part 2), application rate 320 g/ha, scored visually after about 3 weeks. The gist of the method:
as §2

For assay [15], the system named is Lolium rigidum. The description is as above. Type of assay: in vivo. The following applies: pre-emergence (Part 2), application rate 1280 g/ha, scored visually after about 3 weeks. The gist of the method: as §2
The subject of assay [16] is Poa annua. Described as above. In kind it is in vivo. To be noted: pre-emergence (Part 2), application rate 320 g/ha, scored visually after about 3 weeks. In a few lines:
as §2

Assay [17] relates to Amaranthus retroflexus. The assay is described as above. Type of assay: in vivo. The following applies: pre-emergence (Part 2), application rate 320 g/ha, scored visually after about 3 weeks. The gist of the method: as §2

SMILES strings stand for the structures.

In the case of `CC1=CC(O)N(c2cc(C(C)(C)C)no2)C1=O` (centres unmarked) [I.2-290, 5-hydroxy-3-methyl-1-(3-tert-butyl-1,2-isoxazol-5-yl)-1,5-dihydro-2H-pyrrol-2-one], the “Effect (inhibition of PS II activity)” value in [1] was “++++ (inhibition≥90%)”. In addition, the “Abutilon theophrasti, herbicidal activity” value in assay [2] and in assay [10] was 100% each time. Further, the “Matricaria inodora, herbicidal activity” value in assay [3] and in assay [11] was 100% each time. In addition, the “Echinochloa crus-galli, herbicidal activity” value in assay [4] and in assay [12] was 100% each time. Further, the “Setaria viridis, herbicidal activity” value in assay [5] and in assay [13] was 100% throughout. Moreover, the “Stellaria media, herbicidal activity” value in assay [6] and in [14] was 100% throughout. The “Lolium rigidum, herbicidal activity” value in assay [7] and in [15] was 100% in each case. In addition, the “Poa Annua, herbicidal activity” value in assay [8] and in assay [16] was 100% each time. Besides, the “Amaranthus retroflexus, herbicidal activity” value in assay [9] and in assay [17] was 100% throughout.

These data come from US20200079765A1, “SUBSTITUTED HETEROARYL PYRROLONES AND SALTS THEREOF AND USE THEREOF AS HERBICIDAL ACTIVE SUBSTANCES” (Bayer CropScience Aktiengesellschaft, priority 2016, published 2020).
